Consider 1 molecule from patent US20080300231A1, “Antibacterial amide macrocycles VI” (priority 2005, published 2008).

Each structure is given as a SMILES string.

This test relates to S. aureus T17. The test can be described thus: Minimum inhibitory concentration (MIC), biphenomycin-resistant S. aureus T17. The class given is cell-based. Here is the method: Determination of the Minimum Inhibitory Concentration (MIC)
The minimum inhibitory concentration (MIC) is the minimum concentration of an antibiotic with which the growth of a test microbe is inhibited over 18-24 h. The inhibitor concentration can in these cases be determined by standard microbiological methods (see, for example, The National Committee for Clinical Laboratory Standards. Methods for dilution antimicrobial susceptibility tests for bacteria that grow aerobically; approved standard-fifth edition. NCCLS document M7-A5 [ISBN 1-56238-394-9]. NCCLS, 940 West Valley Road, Suite 1400, Wayne, Pa. 19087-1898 USA, 2000). The MIC of the compounds of the invention is determined in the liquid dilution test on the 96-well microtitre plate scale. The bacterial microbes are cultivated in a minimal medium (18.5 mM Na2HPO4, 5.7 mM KH2PO4, 9.3 mM NH4Cl, 2.8 mM MgSO4, 17.1 mM NaCl, 0.033 μg/ml of thiamine hydrochloride, 1.2 μg/ml of nicotinic acid, 0.003 μg/ml of biotin, 1% glucose, 25 μg/ml of each proteinogenic amino acid with the exception of phenylalanine; [H.-P. Kroll; unpublished]) with addition of 0.4% BH broth (test medium). In the case of Enterococcus faecium L4001, heat-inactivated fetal calf serum (FCS; GibcoBRL, Germany) is added to the test medium in a final concentration of 10%. Overnight cultures of the test microbes are diluted to an OD578 of 0.001 (to 0.01 in the case of enterococci) in fresh test medium, and incubated 1:1 with dilutions of the test substances (1:2 dilution steps) in test medium (200 μl final volume). The cultures are incubated at 37° C. for 18-24 hours; enterococci in the presence of 5% CO2
The lowest substance concentration in each case at which no visible bacterial growth occurs any more is defined as the MIC.
Alternative Method for Determining the Minimum Inhibitory Concentration (MIC)
The minimum inhibitory concentration (MIC) is the minimum concentration of an antibiotic with which the growth of a test microbe is inhibited over 18-24 h. The inhibitor concentration can in these cases be determined by standard microbiological methods with modified medium in an agar dilution test (see, for example, The National Committee for Clinical Laboratory Standards. Methods for dilution antimicrobial susceptibility tests for bacteria that grow aerobically; approved standard-fifth edition. NCCLS document M7-A5 [ISBN 1-56238-394-9]. NCCLS, 940 West Valley Road, Suite 1400, Wayne, Pa. 19087-1898 USA, 2000). The bacterial microbes are cultivated on 1.5% agar plates which contain 20% defibrinated horse blood. The test microbes, which are incubated overnight on Columbia blood agar plates (Becton-Dickinson), are diluted in PBS, adjusted to a microbe count of about 5×10^5 microbes/ml and placed dropwise (1-3 μl) on test plates. The test substances comprise different dilutions of the test substances (1:2 dilution steps). The cultures are incubated at 37° C. in the presence of 5% CO2 for 18-24 hours.
The lowest substance concentration in each case at which no visible bacterial growth occurred any more is defined as the MIC and is reported in μg/ml.
The S. aureus strain T17 is isolated in vivo. CFW1 mice are infected intraperitoneally with 4×10^7 S. aureus 133 cells per mouse. 0.5 h after the infection, the animals are treated intravenously with 50 mg/kg biphenomycin B. The kidneys are removed from the surviving animals on day 3 after the infection. After homogenization of the organs, the homogenates are plated out as described for RN4220Bi^R on antibiotic-free and antibiotic-containing agar plates and incubated at 37° C. overnight. […] About 20 of these colonies are tested for the biphenomycin B MIC, and a colony with a MIC of >50 μM is selected for further cultivation, and the strain is referred to as T17.

As to `NC[C@H](O)C[C@@H]1NC(=O)[C@@H](N)Cc2cc(ccc2O)-c2ccc(O)c(c2)C[C@@H](C(=O)O)NC1=O` [Biphenomycin B, biphenomycin B, reference compound], the “MIC S. aureus T17” value (biphenomycin-resistant S. aureus T17) was more than 32 µg/mL. This molecule also returned an MIC (colony from kidney selected as strain T17) of more than 50 µM.

Broadly, the MIC is the smallest concentration in the dilution series that meets the test's criterion for growth inhibition. Low values mean inhibition by little substance, high ones a need for much substance.
